Where two headings read alike, the source gives them in different places.

This assay has as its system castrated immature young rats. Description: Adapted model of Hershberger's test. The class given is in vivo, Sprague Dawley rats. To be noted: Rattus norvegicus, po, 96 h, ORX control = 0%, SHAM control = 100%, per os daily for 4 days, dose tested 10 mg/kg. The procedure:
The selective modulating activity of the androgen receptor is tested in a model of castrated immature young rats. This model, which is widely recognised for evaluating the anabolic effects of androgen compounds on the muscles and on the prostate, has been described by Hershberger et al. 1953 Proc. Soc. Expt. Biol. Med. 83:175.
The method is based on the measurement of the well-known effects of androgens on the growth of the muscles and the accessory male sex organs in animals, and also in men. The consequences of castration appear in the form of a rapid involution and atrophy of the prostate and the seminal vesicles and of the anus-lifting muscle (levator ani). This effect may be completely compensated by an exogeneous administration of androgen, in particular of testosterone. The model is thus used to determine the capacity of the tested molecules to maintain the weight of the accessory sex and muscle organs in immature castrated rats, and therefore their androgenic efficacy.
Immature young Sprague Dawley rats (4 to 5 weeks old) weighing approximately 140-160 g (Charles River, Les Oncins, FRANCE) are distributed randomly in various groups and are kept in an environment at 22±2° C. with an alternating day/night cycle of 12 hours and ad libitum access to food and drink.
On day 0 (seven days before commencement of the first treatment) the rats are weighed individually then anaesthetised with an intraperitoneal dose of Ketamine/xylazine (85/15 mg/kg, approximately 2 ml/kg). Each animal is then placed on a sterile field and the abdomen and the scrotum are disinfected with Betadine and 70% alcohol. In the case of the orchidectomised control animals (ORX), the testicles are removed via an incision in the middle of the scrotum. A sterile suture is then made to ligature the supra-testicular portion of the tissue prior to surgical section of each testicle. The groups of animals to be treated by the tested compounds are operated on in an identical manner. In the case of the intact control animals (SHAM), the testicles are similarly extracted and reintroduced delicately to their original location. The site of surgical intervention is then sutured using sterile suture thread, and the site is disinfected again by application of Betadine. Each animal is then kept under a sterile pad until it awoke, before being returned to its cage. The animals are kept in an environment at 22±2° C. with an alternating day/night cycle of 12 hours and ad libitum access to food and drink. The animals are treated with the molecules to be tested from post-surgery day 7 and until day 10 preceding sacrifice (day 11).
The rats are split into groups and treated daily from day 7 to day 10 under the conditions defined below: • 1. SHAM control group: Vehicle (PEG400/DMSO/water; 79/1/20) administered per os. • 2. ORX control group: Vehicle (PEG400/DMSO/water; 79/1/20) administered per os. • 3. Treated ORX group: The tested compounds are administered individually per os in suspension in the vehicle described above, in a dose of 10 mg/kg.
After treatment for 4 successive days, the animals are decapitated using a guillotine. The levator ani and the ventral prostate are removed and weighed individually. For comparing inter-experimental data, the weight of each organ is standardised and expressed in milligrammes per 100 g of the weight of the animal (W). For each organ, the average of the standardised weights of the ORX control group is fixed by definition at 0% and the average of the standardised weights of the SHAM control group is fixed by definition at 100%. The efficacy of each product is expressed as a percentage and calculated using the following formula: (Wtreated−WORX)/(WSHAM−WORX)×100
A subsequent ANOVA test is used for statistical analysis to identify the differences between groups.

Setting [1] is: levator ani weight, read-out: Anabolic activity %.
Where [2] appears, read: ventral prostate weight, read-out: Androgenic activity % (Prostate).

On to `CN1C(=O)N(c2ccc(C#N)c(C(F)(F)F)c2)C(=O)C1(CO)c1ccc(Cl)cc1` (stereo not drawn) [Example 7, 4-[4-(4-Chlorophenyl)-2,5-dioxo-4-hydroxymethyl-3-methyl-imidazolidin-1-yl)-2-trifluoromethylbenzonitrile], for which the response vs control in vivo at 10 mg/kg is, setting by setting: under setting [1], 25 to 50%; under setting [2], 0%.

On to `CN1C(=O)N(c2ccc(C#N)c(C(F)(F)F)c2)C(=O)[C@@]1(CO)c1ccccc1` [Example 10, (S)-4-[2,5-Dioxo-4-(hydroxymethyl)-3-methyl-4-phenylimidazolidin-1-yl]-2-trifluoromethylbenzonitrile], for which the response vs control in vivo at 10 mg/kg is, setting by setting: under setting [1], 75 to 100%; under setting [2], 0.5 to 25%.

For `CCN1C(=O)N(c2ccc(C#N)c(C(F)(F)F)c2)C(=O)C1(CO)c1ccccc1` (stereo not drawn) [Example 12, 4-[2,5-Dioxo-3-ethyl-4-(hydroxymethyl)-4-phenylimidazolidin-1-yl]-2-trifluoromethylbenzonitrile], the response vs control in vivo at 10 mg/kg fell in the range of 75 to 100% under setting [1] and 50 to 75% under setting [2].

Source of the values: patent US8383608B2, “Imidazolidine compounds as androgen receptor modulators” (Dart Therapeutics LLC, priority 2008, dated 2013).
